Experiments:
Assay type in all cases: biochemical
beta-glucuronidase (GUS) = target: T1, beta-glucuronidase (GUS) (Homo sapiens, UniProt P08236); experiment: Beta-glucuronidase (GUS) assay
T1 construct: purchased Sigma-Aldrich
T1 sequence (P08236 23-651): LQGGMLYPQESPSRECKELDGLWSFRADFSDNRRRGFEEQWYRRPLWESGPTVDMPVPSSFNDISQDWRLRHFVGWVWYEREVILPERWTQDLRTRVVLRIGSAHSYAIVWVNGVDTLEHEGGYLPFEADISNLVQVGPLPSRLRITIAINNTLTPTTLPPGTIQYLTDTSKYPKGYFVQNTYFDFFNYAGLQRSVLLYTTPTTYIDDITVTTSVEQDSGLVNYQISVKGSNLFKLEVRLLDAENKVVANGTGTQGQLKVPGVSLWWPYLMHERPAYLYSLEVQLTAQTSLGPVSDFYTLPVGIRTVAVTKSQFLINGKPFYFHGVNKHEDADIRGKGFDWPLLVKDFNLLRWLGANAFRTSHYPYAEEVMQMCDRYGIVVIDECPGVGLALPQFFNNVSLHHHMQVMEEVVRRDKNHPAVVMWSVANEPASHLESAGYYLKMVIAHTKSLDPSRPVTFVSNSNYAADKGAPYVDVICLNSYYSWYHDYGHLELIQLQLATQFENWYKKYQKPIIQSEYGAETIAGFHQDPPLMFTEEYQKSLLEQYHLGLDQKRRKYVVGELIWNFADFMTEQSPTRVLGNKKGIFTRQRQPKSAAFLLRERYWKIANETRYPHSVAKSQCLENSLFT
Experimental: The source of the human enzyme was Sigma-Aldrich. GUS was incubated with the substrate in 50 mM MES, pH 6.3, for 15 minutes.

[1] = system: panel of recombinant human P450s; experiment: Two-step luminescent screen of luciferin derivatives against a panel of recombinant human P450s and HLM; conditions: 50 μM substrate, panel of FIGS. 17-18
Experimental: P450s are Supersomes™ purchased from Discovery Labware (BD/Gentest). […] HLM is human liver microsomes.
1× substrate concentration: 50 μM.
The HLM reactions contained […] reaction, except where indicated otherwise. Control insect cell membranes were at 50 μg/50 μL.
For FIG. 20, the panel of human P450s was screened as described above.

[2] = target: T2, yeast alcohol dehydrogenase (Saccharomyces cerevisiae, UniProt P00330); experiment: Conversion of luciferol by yeast alcohol dehydrogenase; conditions: room temperature
T2 construct: purchased Sigma Chem Co. A 7011
T2 sequence (P00330 1-348): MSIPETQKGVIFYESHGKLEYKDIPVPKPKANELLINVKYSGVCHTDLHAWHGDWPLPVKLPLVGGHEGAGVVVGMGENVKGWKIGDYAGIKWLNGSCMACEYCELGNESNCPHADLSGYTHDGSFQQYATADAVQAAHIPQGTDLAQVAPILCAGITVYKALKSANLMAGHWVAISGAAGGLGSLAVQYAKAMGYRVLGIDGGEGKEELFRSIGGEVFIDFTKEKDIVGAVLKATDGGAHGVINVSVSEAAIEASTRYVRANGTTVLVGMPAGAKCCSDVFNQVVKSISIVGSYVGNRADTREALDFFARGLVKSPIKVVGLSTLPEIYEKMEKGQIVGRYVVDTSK
Experimental: A luciferin derivative, luciferol, was employed as a substrate for alcohol dehydrogenase (ADH). The derivative was tested in a two step format. For the first step, the derivative was added to a mixture with one of four ADHs. At different times after the reaction was initiated, a portion was removed and mixed with a luciferase reaction mixture. Reactions in which light production increased over time indicate that luciferol is a substrate for the ADH in that reaction.
Y ADH solution: 7500 units of yeast alcohol dehydrogenase (Sigma Chem Co. A 7011) was dissolved in 1 ml of 50 mM Bis Tris pH 6.5.
NAD+ solution: 66 mg of NAD+(Sigma Chem. Co. N 1511-250) was dissolved in 2 ml of Bis Tris, pH 6.5 and 8 ml of water.
Luciferol solution: approximately 4 mg of luciferol was dissolved in 1 ml of dimethylformamide (Aldrich 27,054-7).
AU reactions were kept at room temperature.

GST M1-1 = target: T3, GST M1-1 (Homo sapiens, UniProt P09488, K173N); experiment: Luminescent GST assay with GST M1-1; conditions: light generating reaction
T3 construct: purchased Sigma
T3 sequence (P09488 1-218 K173N): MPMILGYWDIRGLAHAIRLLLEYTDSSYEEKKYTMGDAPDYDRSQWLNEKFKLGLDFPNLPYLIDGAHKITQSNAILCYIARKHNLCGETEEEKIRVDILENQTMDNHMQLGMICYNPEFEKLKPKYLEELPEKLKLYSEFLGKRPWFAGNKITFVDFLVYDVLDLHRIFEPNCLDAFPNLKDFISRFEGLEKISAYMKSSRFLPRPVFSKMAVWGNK

## Cc1cc(=O)oc2cc(O[C@@H]3O[C@H](C(=O)O)[C@@H](O)[C@H](O)[C@H]3O)ccc12 [4-methylumbelliferyl glucuronide]
beta-glucuronidase (GUS); [GUS] 4.3 ng/ml
  signal-to-noise, fluorescence: 7.5
beta-glucuronidase (GUS); [GUS] 8.7 ng/ml
  signal-to-noise, fluorescence: 15.6
beta-glucuronidase (GUS); [GUS] 34.7 ng/ml
  signal-to-noise, fluorescence: 76.5
beta-glucuronidase (GUS); [GUS] 69.4 ng/ml
  signal-to-noise, fluorescence: 164.6
beta-glucuronidase (GUS); [GUS] 138.8 ng/ml
  signal-to-noise, fluorescence: 376.8
beta-glucuronidase (GUS); [GUS] 277.5 ng/ml
  signal-to-noise, fluorescence: 861.4

## O=C(O)[C@H]1CSC(c2nc3ccc(OCSc4ccc(Cl)cc4)cc3s2)=N1 [6′-p-chlorophenylthiol-methoxy-luciferin, 6-(4-Chloro-phenylthiomethoxy)luciferin]
[1]
  P450 enzyme activity / selectivity (words): showed selectivity for CYP3A7

## COc1ccc2nc(C3=N[C@@H](C(=O)O)CS3)sc2c1 [luciferin 6-methyl ether, reference compound]
[1]
  P450 enzyme activity / selectivity (words): extremely low activity with CYP2D6

## OC[C@H]1CSC(c2nc3ccc(O)cc3s2)=N1 [luciferol]
[2]; Rx 7: 5 μl yeast ADH, 30 minutes after luciferol addition
  Light produced: 6.184
[2]; Rx 7: 5 μl yeast ADH, 60 minutes after luciferol addition
  Light produced: 6.052
[2]; Rx 7: 5 μl yeast ADH, 95 minutes after luciferol addition
  Light produced: 5.980
[2]; Rx 7: 5 μl yeast ADH, 190 minutes after luciferol addition
  Light produced: 6.640
[2]; Rx 7: 5 μl yeast ADH, 280 minutes after luciferol addition
  Light produced: 7.988
[2]; Rx 8: 10 μl yeast ADH, 30 minutes after luciferol addition
  Light produced: 6.126
[2]; Rx 8: 10 μl yeast ADH, 60 minutes after luciferol addition
  Light produced: 5.468
[2]; Rx 8: 10 μl yeast ADH, 95 minutes after luciferol addition
  Light produced: 5.552
[2]; Rx 8: 10 μl yeast ADH, 190 minutes after luciferol addition
  Light produced: 6.198
[2]; Rx 8: 10 μl yeast ADH, 280 minutes after luciferol addition
  Light produced: 6.903
[2]; Rx 9: 20 μl yeast ADH, 30 minutes after luciferol addition
  Light produced: 5.406
[2]; Rx 9: 20 μl yeast ADH, 60 minutes after luciferol addition
  Light produced: 5.608
[2]; Rx 9: 20 μl yeast ADH, 95 minutes after luciferol addition
  Light produced: 6.301
[2]; Rx 9: 20 μl yeast ADH, 190 minutes after luciferol addition
  Light produced: 5.825
[2]; Rx 9: 20 μl yeast ADH, 280 minutes after luciferol addition
  Light produced: 6.734
[2]; Rx 10: 20 μl yeast ADH, 10 μl luciferol, 30 minutes after luciferol addition
  Light produced: 9.672
[2]; Rx 10: 20 μl yeast ADH, 10 μl luciferol, 60 minutes after luciferol addition
  Light produced: 9.531
[2]; Rx 10: 20 μl yeast ADH, 10 μl luciferol, 95 minutes after luciferol addition
  Light produced: 10.00
[2]; Rx 10: 20 μl yeast ADH, 10 μl luciferol, 190 minutes after luciferol addition
  Light produced: 10.36
[2]; Rx 10: 20 μl yeast ADH, 10 μl luciferol, 280 minutes after luciferol addition
  Light produced: 11.71

## O=C(O)C1CSC(c2ccc3cc(OCc4ccccc4)ccc3n2)=N1 (stereo not drawn) [quinolylluciferin 6-benzyl ether]
[1]
  P450 enzyme activity / selectivity (words): preferred substrate for 3A7, and to a lesser degree a substrate for 3A4 and 2C8

## COc1ccc2nc(C3=NC(C(=O)O)CS3)cnc2c1 (stereo not drawn) [quinoxalylluciferin 6-methyl ether]
[1]
  P450 enzyme activity / selectivity (words): substrate for 4A11

## O=C(O)C1CSC(c2nc3ccc(OCc4cccc(CN5CCN(c6ccccc6)CC5)c4)cc3s2)=N1 (stereo not drawn) [Luciferin 3-(4-phenylpiperazin-1-yl)methylbenzyl ether]
[1]
  P450 enzyme activity / selectivity (words): selective for three members of the CYP3A subfamily, CYP3A4, CYP3A5 and CYP3A7
[1]; listed as 6′(3-((4-phenylpiperizin-1-yl))methyl)benzyloxy) luciferin
  P450 enzyme activity / selectivity (words): did not cross react with 4F1 2

## 4-(O-methyl)-6-(O-methyl)-luciferin
[1]
  P450 enzyme activity / selectivity (words): enhanced selectivity for 1 A2, 2C8 and 2C9

## COc1ccc2nc(C3=NC(C(=O)O)CS3)ccc2c1 (stereo not drawn) [Quinolylluciferin 6-methyl ether]
[1]
  P450 enzyme activity / selectivity (words): preferred substrate for 1A2 and 4A1 1
[1]; listed as quinolyl luciferin-6-methyl ether
  P450 enzyme activity / selectivity (words): enhanced selectivity for CYP4A11

## Cc1cc(C)c(COc2ccc3nc(C4=N[C@@H](C(=O)O)CS4)sc3c2)c(C)c1 [6′(2,4,6-trimethylbenzyloxy)-luciferin]
[1]
  P450 enzyme activity / selectivity (words): selective for three members of the CYP3A subfamily, CYP3A4, CYP3A5 and CYP3A7
[1]; listed as 6(2,4,6 trimethylbenzyl)-luciferin
  P450 enzyme activity / selectivity (words): showed substantial activity with CYP3A4 and did not show substantial cross reactivity with CYP4F12

## COC(=O)[C@H]1CSC(c2ccc3cc(Oc4ccc(C(F)(F)F)cc4[N+](=O)[O-])ccc3n2)=N1 [GST-4, Methyl 6-(2-nitro-4-trifluoromethyl-phenoxy)quinolinyl-luciferin ester]
GST M1-1
  GST preference: better substrate for GST M1-1 in a light generating reaction than GST A1-1

## 4-methyl-6-(O-methyl)-luciferin
[1]
  P450 enzyme activity / selectivity (words): enhanced selectivity for 1 A2, 2C8 and 2C9

## COc1ccc2cc(C3=N[C@@H](C(=O)O)CS3)ccc2c1 [Naphthylluciferin 6-methyl ether]
[1]
  P450 enzyme activity / selectivity (words): substrate for 4A11

## COc1ccc2nc(C3=NC(C(=O)OCc4cccnc4)CS3)sc2c1 (stereo not drawn)
[1]
  P450 enzyme activity / selectivity (words): preference for 2D6, 1A1 and 1A2

## COC(=O)[C@H]1CSC(c2nc3ccc(OC)cc3s2)=N1 [carboxyl ester of luciferin-ME, carboxyl methyl ester of luciferin-ME]
[1]
  P450 enzyme activity / selectivity (words): reacted strongly with several other P450s including CYP2C19

## O=C(O)[C@H]1CSC(c2nc3ccc(OCc4c(F)c(F)c(F)c(F)c4F)cc3s2)=N1 [6′-(2,3,4,5,6-pentafluorobenzyloxy)-luciferin]
[1]
  P450 enzyme activity / selectivity (words): selective for three members of the CYP3A subfamily, CYP3A4, CYP3A5 and CYP3A7
[1]; listed as 6(2,3,4,5,6 pentafluorbenzyloxy)-luciferin
  P450 enzyme activity / selectivity (words): showed substantial activity with CYP3A4 and did not show substantial cross reactivity with CYP4F12

## O=C(Nc1ccc2nc(C3=NC(C(=O)O)CS3)sc2c1)OCc1ccccc1 (stereo not drawn) [N-benzyloxycarbonyl aminoluciferin]
[1]
  P450 enzyme activity / selectivity (words): strong selectivity for CYP1A1
